Values quoted from earlier work in publication PMC12415690 (RSC Advances, 2025).
Values after ≈ are worked out from the molar mass of the structure shown. Like-named read-outs stand apart in the source and are kept apart here.

What was measured:
M.tb H37Rv = details: H37Rv strain; cited from earlier work
[1] = system: dormant M. tuberculosis H37Ra; details: cited from earlier work
[2] = system: Mycobacterium tuberculosis; details: cited from earlier work

For `CCOC(=O)c1nc(-c2ccc(C#N)cc2)sc1C1CCCCC1` [ethyl 2-(4-cyanophenyl)-5-cyclohexylthiazole-4-carboxylate], the MIC (M.tb H37Rv) is given as 2.1 µg/mL (≈ 6.17 µM) and the “inhibition against dormant M. tuberculosis H37Ra” value [1] is given as 91%.
For `Cc1csc(C(C)(O)c2nnc(Nc3cccc(Br)n3)s2)n1` (stereo not shown) [1-(5-((6-bromopyridin-2-yl)amino)-1,3,4-thiadiazol-2-yl)-1-(4-methylthiazol-2-yl)ethanol], the MIC ([2]; thiazole-thiadiazole hybrids) is given as 1 µM.
In the case of `O=[N+]([O-])c1ccc(-c2csc(N/N=C/C=C(\Cl)c3ccc(Cl)cc3)n2)cc1` [2-((E)-2-((Z)-3-chloro-3-(4-chlorophenyl)allylidene)hydrazinyl)-4-(4-nitrophenyl)thiazole], the MIC ([2]; (E)-2-(2-allylidenehydrazinyl)thiazole derivatives) is given as 6.5 µg/mL.
